Laboratory results published in PubChem BioAssay AID743341 (Broad Institute, 2014).
Results filed as inconclusive are left out. Calls of active or inactive are those of the source.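 Rule for the calls: active = fitted curve of myotube length rescue reaches 40% at or below the top valid tested dose in every replicate test; inconclusive = replicate tests give mixed outcomes; inactive = every replicate test inactive, including effects in the opposite direction.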

Experiments:
[1] = test system: C2C12 myotubes + simvastatin, MHC imaging tube length, 48 h; assay: suppression of statin-driven myotube degradation – imaging, C2C12 myotubes, MHC immunostaining, dry powder, orthogonal assay for statin myotoxicity suppressor project, confirmation (AID 743341)
[2] = as above; conditions: C2C12 myotubes + simvastatin, MHC imaging tube length, 48 h

Structure (SMILES)	rescue of myotube length ([2]; at 19.5 µM (top of the series))	further results
C[C@@H]1CN([C@@H](C)CO)C(=O)c2cccc(NC(=O)Nc3ccc4c(c3)OCO4)c2O[C@H]1CN(C)Cc1ccc(C(=O)Nc2ccccc2N)cc1		AC40 [1]: 7.66 µM
N#C[C@@H]1[C@@H](c2ccc(-c3cccc(F)c3)cc2)[C@@H](CO)N1C(=O)NC1CCCC1	3.2% (inactive)	
O=C(C[C@H]1CC[C@@H]2[C@H](COC[C@H](O)CN2CCC(F)(F)F)O1)NCc1ccc(Oc2ccccc2)cc1	5.97% (inactive)	
C[C@H]1CN([C@@H](C)CO)S(=O)(=O)c2ccc(C#CC3CC3)cc2O[C@H]1CN(C)C(=O)Nc1cc(F)ccc1F		AC40 [1]: 19.5 µM
C[C@H]1CN([C@@H](C)CO)C(=O)Cc2cc(NC(=O)CCCCCC(=O)Nc3ccccc3N)ccc2O[C@H]1CN(C)Cc1ccccc1		rescue of myotube length ([2]; at 18 µM (top of the series)): 21.7% (inactive)
COc1ccc(-c2ccc([C@@H]3[C@@H](C#N)N(C(=O)NC4CCCC4)[C@H]3CO)cc2)cc1	7.03% (inactive)	
C[C@H]1CN([C@@H](C)CO)C(=O)c2cc(NC(=O)Nc3cccc4ccccc34)ccc2O[C@H]1CN(C)Cc1ccc(C(=O)Nc2ccccc2N)cc1	13.4% (inactive)	
C[C@@H]1CN([C@@H](C)CO)C(=O)c2cc(NC(=O)Nc3cccc4ccccc34)ccc2O[C@@H]1CN(C)Cc1ccc(C(=O)Nc2ccccc2N)cc1		rescue of myotube length ([2]; at 21 µM (top of the series)): 20.8% (inactive)
N#C[C@@H]1[C@H](c2ccc(-c3cccc(F)c3)cc2)[C@@H](CO)N1C(=O)NC1CCCC1	12.9% (inactive)	
N#C[C@@H]1[C@@H](c2ccccc2-c2ccc(F)cc2)[C@H](CO)N1C(=O)NC1CCCC1	15.4% (inactive)	
N#C[C@H]1[C@H](c2ccc(C#CCC3CCCC3)cc2)[C@@H](CO)N1C(=O)CN1CCOCC1	14.6% (inactive)	
N#C[C@H]1[C@@H](c2ccc(-c3cccc(F)c3)cc2)[C@H](CO)N1C(=O)NC1CCCC1	8.46% (inactive)	
N#C[C@@H]1[C@@H](c2ccccc2)[C@H](CO)N1S(=O)(=O)c1ccc(-c2ccccc2)cc1		rescue of myotube length ([2]; at 21 µM (top of the series)): 13.9% (inactive)
C[C@@H]1CN([C@@H](C)CO)C(=O)c2cc(NS(=O)(=O)c3ccc(Cl)cc3)ccc2O[C@H]1CN(C)C(=O)Nc1cccc2ccccc12	-1.68% (inactive)	
C[C@H](CO)N1C[C@H](C)[C@@H](CN(C)Cc2ccc(Cl)c(Cl)c2)Oc2ccc(NC(=O)C3CC3)cc2CC1=O	-6.48% (inactive)	
N#C[C@H]1N[C@@H](CO)[C@@H]1c1ccc(-c2cccc(F)c2)cc1		rescue of myotube length ([2]; at 21 µM (top of the series)): 8.43% (inactive)

Structure (SMILES)	rescue of myotube length ([2]; at 19.5 µM (top of the series))	further results
CCCC#Cc1ccc([C@H]2[C@@H](C#N)N(S(=O)(=O)c3cccc(F)c3)[C@H]2CO)cc1	4.16% (inactive)	
C[C@H]1CN([C@@H](C)CO)C(=O)Cc2cc(NS(=O)(=O)c3ccc(Cl)cc3)ccc2O[C@@H]1CN(C)CC1CCCCC1		rescue of myotube length ([2]; at 21 µM (top of the series)): -32.7% (inactive)
CCS(=O)(=O)N1[C@H](C#N)[C@@H](c2ccc(-c3cccc(F)c3)cc2)[C@@H]1CO		rescue of myotube length ([2]; at 21 µM (top of the series)): 16.6% (inactive)
C/C=C/c1ccc([C@H]2[C@@H](CO)N(C(=O)NC3CCCC3)[C@H]2C#N)cc1	12.4% (inactive)	
COc1ccc(S(=O)(=O)N(C)C[C@H]2Oc3c(NC(=O)Nc4ccccc4)cccc3C(=O)N([C@H](C)CO)C[C@H]2C)cc1	3.68% (inactive)	
Cc1noc(C)c1S(=O)(=O)Nc1ccc2c(c1)CC(=O)N([C@H](C)CO)C[C@H](C)[C@@H](CN(C)Cc1ccc(C(F)(F)F)cc1)O2	-1.01% (inactive)	
COCC(=O)N1[C@H](C#N)[C@@H](c2ccc(-c3cccc(F)c3)cc2)[C@@H]1CO		rescue of myotube length ([2]; at 21 µM (top of the series)): 4.32% (inactive)
Cc1ccc(S(=O)(=O)N(C)C[C@@H]2Oc3ccc(NS(=O)(=O)c4ccc(Cl)cc4)cc3C(=O)N([C@H](C)CO)C[C@@H]2C)cc1	3.15% (inactive)	
Cc1ccc(S(=O)(=O)Nc2ccc3c(c2)CC(=O)N([C@@H](C)CO)C[C@@H](C)[C@H](CN(C)Cc2ccc(-c4ccccc4)cc2)O3)cc1	-2.54% (inactive)	
O=C(C[C@H]1CC[C@@H]2[C@H](COC[C@@H](O)CN2Cc2ccc(Oc3ccccc3)cc2)O1)N1CCCCC1	15.6% (inactive)	
N#C[C@H]1[C@@H](c2ccc(-c3cccc(F)c3)cc2)[C@@H](CO)N1C(=O)NC1CCCC1	-4.89% (inactive)	
CN(C)C(=O)c1cccc(-c2ccc([C@@H]3[C@@H](C#N)N(C(=O)C4CCCC4)[C@@H]3CO)cc2)c1	13.3% (inactive)	
N#C[C@@H]1[C@@H](c2ccc(-c3cccc(F)c3)cc2)[C@H](CO)N1C(=O)c1cccnc1	12.6% (inactive)	
C[C@H](CO)N1C[C@H](C)[C@@H](CN(C)Cc2ccc(Oc3ccccc3)cc2)Oc2c(NC(=O)Nc3cccc4ccccc34)cccc2C1=O	14.7% (inactive)	
CN1C(=O)c2cc(NC(=O)c3ccc(F)c(F)c3)ccc2OC[C@H]2O[C@@H](CC(=O)Nc3ccc4c(c3)COC4)CC[C@@H]21	12.6% (inactive)	
CCCNC(=O)N1[C@H](C#N)[C@@H](c2ccc(C3=CCCCC3)cc2)[C@@H]1CO	22.8% (inactive)	
